Source: patent US20230085307A1, “PYRIDAZINONE COMPOUND AND HERBICIDE” (NISSAN CHEMICAL CORPORATION, priority 2019, published 2023)

Experiments:
[1] = tested on: chickweed; assay: Test Example 5: herbicidal effect by foliage application, plastic box (Table 20, symbol P); assay type: in vivo, common chickweed (Stellaria media); conditions: foliage application, 320 g/ha, evaluated three weeks after application
Summary of the method: (§1)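 Plants were sown into sterilized diluvial soil under about 1.5 cm cover and kept in a greenhouse at 25° C. to 30° C. Fourteen days on, foliage received an even spray of the diluted emulsion. Herbicidal or crop effect was judged three weeks afterwards.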

[2] = tested on: blackgrass; assay: Test Example 4: herbicidal effect by soil treatment (Table 19, symbol J); assay type: in vivo, blackgrass (Alopecurus myosuroides); conditions: amount of applied herbicide 320 g/ha
Summary of the method: (§2)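 In this soil treatment, the formulated compound reached the seeds only through the soil: seeds were buried about 1.5 cm deep in sterilized diluvial soil, then the diluted emulsion was sprayed over the surface. After three weeks at 25° C. to 30° C. in a greenhouse, effects were graded on criteria from an earlier test.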

[3] = tested on: rice flat sedge; assay: Test Example 3: herbicidal effect by foliage application, Wagner pot (Table 18, symbol E); assay type: in vivo, rice flat sedge (Cyperus iria); conditions: amount of applied herbicide 320 g/ha
Summary of the method: (§3)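 Plants were sown in alluvial soil held under 0.1–0.5 cm standing water and grown 14 days in a greenhouse at 25–30 °C. An emulsifiable formulation, water-diluted to the set dose, was then sprayed onto the foliage, and effects were scored three weeks later using previously defined criteria.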

[4] = tested on: redroot pigweed; assay: Test Example 4: herbicidal effect by soil treatment (Table 19, symbol N); assay type: in vivo, redroot pigweed (Amaranthus retroflexus); conditions: amount of applied herbicide 320 g/ha
Summary of the method: as §2

[5] = tested on: lambsquarters; assay: Test Example 5: herbicidal effect by foliage application, plastic box (Table 20, symbol O); assay type: in vivo, lambsquarters (Chenopodium album); conditions: foliage application, 320 g/ha, evaluated three weeks after application
Summary of the method: as §1

[6] = tested on: lambsquarters; assay: Test Example 4: herbicidal effect by soil treatment (Table 19, symbol O); assay type: in vivo, lambsquarters (Chenopodium album); conditions: amount of applied herbicide 320 g/ha
Summary of the method: as §2

[7] = tested on: windgrass; assay: Test Example 5: herbicidal effect by foliage application, plastic box (Table 20, symbol L); assay type: in vivo, windgrass (Apera spica-venti); conditions: foliage application, 320 g/ha, evaluated three weeks after application
Summary of the method: as §1

[8] = tested on: barnyard grass; assay: Test Example 4: herbicidal effect by soil treatment (Table 19, symbol H); assay type: in vivo, barnyard grass (Echinochloa crus-galli); conditions: amount of applied herbicide 320 g/ha
Summary of the method: as §2

[9] = tested on: southern crabgrass; assay: Test Example 4: herbicidal effect by soil treatment (Table 19, symbol F); assay type: in vivo, southern crabgrass (Digitaria ciliaris); conditions: amount of applied herbicide 320 g/ha
Summary of the method: as §2

[10] = tested on: green foxtail; assay: Test Example 4: herbicidal effect by soil treatment (Table 19, symbol G); assay type: in vivo, green foxtail (Setaria viridis); conditions: amount of applied herbicide 320 g/ha
Summary of the method: as §2

[11] = tested on: barnyard grass; assay: Test Example 3: herbicidal effect by foliage application, Wagner pot (Table 18, symbol H); assay type: in vivo, barnyard grass (Echinochloa crus-galli); conditions: amount of applied herbicide 320 g/ha
Summary of the method: as §3

[12] = tested on: chickweed; assay: Test Example 4: herbicidal effect by soil treatment (Table 19, symbol P); assay type: in vivo, common chickweed (Stellaria media); conditions: amount of applied herbicide 320 g/ha
Summary of the method: as §2

[13] = tested on: green foxtail; assay: Test Example 5: herbicidal effect by foliage application, plastic box (Table 20, symbol G); assay type: in vivo, green foxtail (Setaria viridis); conditions: foliage application, 320 g/ha, evaluated three weeks after application
Summary of the method: as §1

[14] = tested on: windgrass; assay: Test Example 4: herbicidal effect by soil treatment (Table 19, symbol L); assay type: in vivo, windgrass (Apera spica-venti); conditions: amount of applied herbicide 320 g/ha
Summary of the method: as §2

[15] = tested on: velvetleaf; assay: Test Example 4: herbicidal effect by soil treatment (Table 19, symbol M); assay type: in vivo, velvetleaf (Abutilon theophrasti); conditions: amount of applied herbicide 320 g/ha
Summary of the method: as §2

[16] = tested on: persian speedwell; assay: Test Example 4: herbicidal effect by soil treatment (Table 19, symbol R); assay type: in vivo, Persian speedwell (Veronica persica); conditions: amount of applied herbicide 320 g/ha
Summary of the method: as §2

[17] = tested on: persian speedwell; assay: Test Example 5: herbicidal effect by foliage application, plastic box (Table 20, symbol R); assay type: in vivo, Persian speedwell (Veronica persica); conditions: foliage application, 320 g/ha, evaluated three weeks after application
Summary of the method: as §1

[18] = tested on: Italian ryegrass; assay: Test Example 4: herbicidal effect by soil treatment (Table 19, symbol K); assay type: in vivo, Italian ryegrass (Lolium multiflorum); conditions: amount of applied herbicide 320 g/ha
Summary of the method: as §2

[19] = tested on: southern crabgrass; assay: Test Example 5: herbicidal effect by foliage application, plastic box (Table 20, symbol F); assay type: in vivo, southern crabgrass (Digitaria ciliaris); conditions: foliage application, 320 g/ha, evaluated three weeks after application
Summary of the method: as §1

[20] = tested on: barnyard grass; assay: Test Example 5: herbicidal effect by foliage application, plastic box (Table 20, symbol H); assay type: in vivo, barnyard grass (Echinochloa crus-galli); conditions: foliage application, 320 g/ha, evaluated three weeks after application
Summary of the method: as §1

[21] = tested on: wild oat; assay: Test Example 4: herbicidal effect by soil treatment (Table 19, symbol I); assay type: in vivo, wild oat (Avena fatua); conditions: amount of applied herbicide 320 g/ha
Summary of the method: as §2

[22] = tested on: redroot pigweed; assay: Test Example 5: herbicidal effect by foliage application, plastic box (Table 20, symbol N); assay type: in vivo, redroot pigweed (Amaranthus retroflexus); conditions: foliage application, 320 g/ha, evaluated three weeks after application
Summary of the method: as §1

[23] = tested on: velvetleaf; assay: Test Example 5: herbicidal effect by foliage application, plastic box (Table 20, symbol M); assay type: in vivo, velvetleaf (Abutilon theophrasti); conditions: foliage application, 320 g/ha, evaluated three weeks after application
Summary of the method: as §1

[24] = tested on: wild oat; assay: Test Example 5: herbicidal effect by foliage application, plastic box (Table 20, symbol I); assay type: in vivo, wild oat (Avena fatua); conditions: foliage application, 320 g/ha, evaluated three weeks after application
Summary of the method: as §1

[25] = tested on: blackgrass; assay: Test Example 5: herbicidal effect by foliage application, plastic box (Table 20, symbol J); assay type: in vivo, blackgrass (Alopecurus myosuroides); conditions: foliage application, 320 g/ha, evaluated three weeks after application
Summary of the method: as §1

[26] = tested on: Italian ryegrass; assay: Test Example 5: herbicidal effect by foliage application, plastic box (Table 20, symbol K); assay type: in vivo, Italian ryegrass (Lolium multiflorum); conditions: foliage application, 320 g/ha, evaluated three weeks after application
Summary of the method: as §1

[27] = tested on: Chinese sprangletop; assay: Test Example 3: herbicidal effect by foliage application, Wagner pot (Table 18, symbol D); assay type: in vivo, chinese sprangletop (Leptochloa chinensis); conditions: amount of applied herbicide 320 g/ha
Summary of the method: as §3

| Compound | herbicidal effect on P: chickweed [1] | J: blackgrass, herbicidal effect rating [2] | herbicidal effect on E: rice flat sedge [3] | N: redroot pigweed, herbicidal effect rating [4] | herbicidal effect on O: lambsquarters [5] | O: lambsquarters, herbicidal effect rating [6] | herbicidal effect on L: windgrass [7] | H: barnyard grass, herbicidal effect rating [8] | F: southern crabgrass, herbicidal effect rating [9] | G: green foxtail, herbicidal effect rating [10] | herbicidal effect on H: barnyard grass [11] | P: chickweed, herbicidal effect rating [12] | herbicidal effect on G: green foxtail [13] | L: windgrass, herbicidal effect rating [14] | M: velvetleaf, herbicidal effect rating [15] | R: persian speedwell, herbicidal effect rating [16] | herbicidal effect on R: persian speedwell [17] | K: Italian ryegrass, herbicidal effect rating [18] | herbicidal effect on F: southern crabgrass [19] | herbicidal effect on H: barnyard grass [20] | further results |
| --- | --- | --- | --- | --- | --- | --- | --- | --- | --- | --- | --- | --- | --- | --- | --- | --- | --- | --- | --- | --- | --- |
| Cc1ccc2sc(-c3ccc(F)cc3)c(-c3c(O)c(C)nn(C)c3=O)c2c1 [2-134] | 5 (Herbicidal rate of 90% or more (almost completely withered)) | 0 (Herbicidal rate of 5% or less (almost no effect)) | 5 (Herbicidal rate of 90% or more (almost completely withered)) | 5 (Herbicidal rate of 90% or more (almost completely withered)) | 4 (Herbicidal rate of 70% or more and less than 90%) | 5 (Herbicidal rate of 90% or more (almost completely withered)) | 0 (Herbicidal rate of 5% or less (almost no effect)) | 0 (Herbicidal rate of 5% or less (almost no effect)) | 2 (Herbicidal rate of 20% or more and less than 40%) | 0 (Herbicidal rate of 5% or less (almost no effect)) | 3 (Herbicidal rate of 40% or more and less than 70%) | 4 (Herbicidal rate of 70% or more and less than 90%) | 0 (Herbicidal rate of 5% or less (almost no effect)) | 0 (Herbicidal rate of 5% or less (almost no effect)) | 0 (Herbicidal rate of 5% or less (almost no effect)) | 4 (Herbicidal rate of 70% or more and less than 90%) | 5 (Herbicidal rate of 90% or more (almost completely withered)) | 0 (Herbicidal rate of 5% or less (almost no effect)) | 0 (Herbicidal rate of 5% or less (almost no effect)) | 0 (Herbicidal rate of 5% or less (almost no effect)) | I: wild oat, herbicidal effect rating [21]: 0 (Herbicidal rate of 5% or less (almost no effect)); herbicidal effect on N: redroot pigweed [22]: 5 (Herbicidal rate of 90% or more (almost completely withered)); herbicidal effect on M: velvetleaf [23]: 5 (Herbicidal rate of 90% or more (almost completely withered)); herbicidal effect on I: wild oat [24]: 0 (Herbicidal rate of 5% or less (almost no effect)); herbicidal effect on J: blackgrass [25]: 0 (Herbicidal rate of 5% or less (almost no effect)); herbicidal effect on K: Italian ryegrass [26]: 3 (Herbicidal rate of 40% or more and less than 70%); herbicidal effect on D: Chinese sprangletop [27]: 0 (Herbicidal rate of 5% or less (almost no effect)) |
| Cc1ccc(-c2sc3ccc(C)cc3c2-c2c(O)c(C)nn(C)c2=O)cc1 [2-136] | 5 (Herbicidal rate of 90% or more (almost completely withered)) | 0 (Herbicidal rate of 5% or less (almost no effect)) | 5 (Herbicidal rate of 90% or more (almost completely withered)) | 5 (Herbicidal rate of 90% or more (almost completely withered)) | 4 (Herbicidal rate of 70% or more and less than 90%) | 5 (Herbicidal rate of 90% or more (almost completely withered)) | 0 (Herbicidal rate of 5% or less (almost no effect)) | 0 (Herbicidal rate of 5% or less (almost no effect)) | 3 (Herbicidal rate of 40% or more and less than 70%) | 0 (Herbicidal rate of 5% or less (almost no effect)) | 2 (Herbicidal rate of 20% or more and less than 40%) | 4 (Herbicidal rate of 70% or more and less than 90%) | 0 (Herbicidal rate of 5% or less (almost no effect)) | 0 (Herbicidal rate of 5% or less (almost no effect)) | 0 (Herbicidal rate of 5% or less (almost no effect)) | 5 (Herbicidal rate of 90% or more (almost completely withered)) | 5 (Herbicidal rate of 90% or more (almost completely withered)) | 3 (Herbicidal rate of 40% or more and less than 70%) | 0 (Herbicidal rate of 5% or less (almost no effect)) | 0 (Herbicidal rate of 5% or less (almost no effect)) | I: wild oat, herbicidal effect rating [21]: 0 (Herbicidal rate of 5% or less (almost no effect)); herbicidal effect on N: redroot pigweed [22]: 5 (Herbicidal rate of 90% or more (almost completely withered)); herbicidal effect on M: velvetleaf [23]: 5 (Herbicidal rate of 90% or more (almost completely withered)); herbicidal effect on I: wild oat [24]: 0 (Herbicidal rate of 5% or less (almost no effect)); herbicidal effect on J: blackgrass [25]: 0 (Herbicidal rate of 5% or less (almost no effect)); herbicidal effect on K: Italian ryegrass [26]: 5 (Herbicidal rate of 90% or more (almost completely withered)); herbicidal effect on D: Chinese sprangletop [27]: 0 (Herbicidal rate of 5% or less (almost no effect)) |
